Experimental data published in ChEMBL document CHEMBL6114982, “Structural optimization and characterization of highly potent and selective STAT3 inhibitors for the treatment of triple negative breast cancer” (Eur J Med Chem, 2025).
Active and inactive are the calls of the source. The calls are words filed in the database; no cut-off is given here.

Tests used:
MDA-MB-231 [1] = assay: Effect on JAK1 phosphorylation level in human MDA-MB-231 cells at 0.05 to 0.5 uM measured after 48 hrs by Western blot analysis; assay type: functional, cell-based; conditions: dose 0.05-0.5 µM
[2] = Toxicity in female BALB/c nude mouse assessed as effect on liver at 10 to 20 mg/kg, iv measured after 30 days by H and E staining based analysis; assay type: organism-based; conditions: in vivo, 720 h, dose 10-20 mg/kg, time 30 day
MDA-MB-231 [3] = assay: Inhibition colony formation in human MDA-MB-231 cells harbouring STAT3 siRNA at 0.1 uM after 14 days by crystal violet staining based analysis; assay type: functional, cell-based; conditions: time 14.0 day
[4] = target: T1, Signal transducer and activator of transcription 3 (Homo sapiens, UniProt P40763); assay: Inhibition of STAT3 phosphorylation in human MDA-MB-231 cells assessed as downregulation of F5 level; assay type: cell-based
T1 sequence (P40763 whole entry): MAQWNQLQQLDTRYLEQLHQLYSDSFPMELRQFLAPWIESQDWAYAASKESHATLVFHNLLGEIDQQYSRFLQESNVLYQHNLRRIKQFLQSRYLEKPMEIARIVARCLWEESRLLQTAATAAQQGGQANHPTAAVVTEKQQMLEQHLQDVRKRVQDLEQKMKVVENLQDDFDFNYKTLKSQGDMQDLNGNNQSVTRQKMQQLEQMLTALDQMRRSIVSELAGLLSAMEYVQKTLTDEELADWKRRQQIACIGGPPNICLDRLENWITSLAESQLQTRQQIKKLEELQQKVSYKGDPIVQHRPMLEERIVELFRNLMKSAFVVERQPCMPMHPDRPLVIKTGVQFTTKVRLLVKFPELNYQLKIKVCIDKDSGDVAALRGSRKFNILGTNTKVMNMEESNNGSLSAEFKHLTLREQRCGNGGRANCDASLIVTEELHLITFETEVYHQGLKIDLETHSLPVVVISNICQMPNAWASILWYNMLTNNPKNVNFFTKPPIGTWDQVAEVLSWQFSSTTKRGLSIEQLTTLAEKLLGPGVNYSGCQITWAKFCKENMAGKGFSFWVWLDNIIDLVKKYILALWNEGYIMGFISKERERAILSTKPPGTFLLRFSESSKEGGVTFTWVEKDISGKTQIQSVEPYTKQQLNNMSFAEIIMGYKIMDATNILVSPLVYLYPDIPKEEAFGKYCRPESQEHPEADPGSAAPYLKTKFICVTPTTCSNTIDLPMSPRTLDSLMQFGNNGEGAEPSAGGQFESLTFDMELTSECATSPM

[5] = Toxicity in female BALB/c nude mouse assessed as effect on heart at 10 to 20 mg/kg, iv measured after 30 days by H and E staining based analysis; assay type: organism-based; conditions: in vivo, 720 h, dose 10-20 mg/kg, time 30 day
BT-549 [6] = assay: Downregulation of cyclin D1 level in human BT-549 cells measured after 48 hrs by Western blot analysis; assay type: functional, cell-based; conditions: dose 0.05-0.5 µM
MDA-MB-231 [7] = assay: Downregulation of MMP2 expression level in human MDA-MB-231 cells by Western blot analysis; assay type: functional, cell-based
MDA-MB-231 [8] = assay: Inhibition of colony formation in human MDA-MB-231 cells measured after 14 days by crystal violet staining based analysis; assay type: functional, cell-based; conditions: dose 0.1-0.5 µM, time 14.0 day
[9] = target: T1, Signal transducer and activator of transcription 3; assay: Inhibition of STAT3 phosphorylation in human MDA-MB-231 cells assessed as upregulation of HMOX1 expression level; assay type: cell-based
[10] = Toxicity in female BALB/c nude mouse assessed as change in body weight at 10 to 20 mg/kg, iv measured for 30 days; assay type: organism-based; conditions: in vivo, 720 h, dose 10-20 mg/kg, time 30 day
BT-549 [11] = assay: Downregulation of CD44 expression in human BT-549 cells by Western blot analysis; assay type: functional, cell-based

inhibition [4]: Active | inhibition [9]: Active
SMILES: COc1cccc(C(=O)Nc2sc3c(c2C#N)CCN(C(=O)Nc2ccccc2OC)C3)c1
Activity (MDA-MB-231 [1]): inactive | Activity [2]: Non-toxic | inhibition (MDA-MB-231 [3]): inactive | Activity [5]: Non-toxic | Activity (BT-549 [6]): Dose-dependent-effect | Activity (MDA-MB-231 [7]): Active | inhibition (MDA-MB-231 [8]): Dose-dependent-effect | Activity [10]: Toxic | Activity (BT-549 [11]): Active
